Laboratory results as given in patent US20110130427A1, “PESTICIDAL COMPOSITION” (ISHIHARA SANGYO KAISHA, LTD., priority 2008, published 2011).

How the values were obtained:
[1] = system: serpentine leaf miner (Liriomyza trifolii); assay: Test Example 1: controlling effects against serpentine leaf miner, Example 1 dilution with polyoxyethylene alkyl ether phosphoric acid ester; type: in vivo
Method: (§1) The above components are mixed, and the obtained solution is diluted 2,000 times or 4,000 times with water containing a polyoxyethylene alkyl ether phosphoric acid ester, followed by spraying (active ingredient concentration: 25 ppm or 12.5 ppm).
Kidney bean planted in a pot having a diameter of 7 cm was put in a breeding case wherein adults of serpentine leaf miner (Liriomyza trifolii) were released and permitted to lay eggs for 2 days. Thereafter, the test plant was taken out and left for 1 day, and then, a water-diluted liquid containing 100 ppm or 250 ppm of the polyoxyethylene alkyl ether phosphoric acid ester prepared in the above Example 1, was sprayed twice on each of the front and rear sides of the Kidney bean leaf by means of a hand spray. After drying in air, the Kidney bean was left to stand for 5 days in an illuminated constant temperature chamber at 25° C., whereupon the number of pupae on each leaf was counted, and the protective value was calculated by the following formula. The test was repeated twice. As the polyoxyethylene alkyl ether phosphoric acid ester, PHOSPHANOL RD-510Y, PHOSPHANOL RS-610 and PHOSPHANOL RS-710 (manufactured by Toho Chemical Industry Co., Ltd.) and ADEKA COL PS-440E (manufactured by ADEKA) were used.
(§2) For the purpose of comparison, a water-diluted liquid having no polyoxyethylene alkyl ether phosphoric acid ester added, was prepared, and spray treatment was carried out in the same manner.
(§3) Protective value (%)=(1−(the number of pupae at treated section/the number of pupae at untreated section))×100

serpentine leaf miner [2] = assay: Test Example 2: controlling effects against serpentine leaf miner, Example 1 dilution with polyoxyethylene arylether phosphoric acid ester; type: in vivo, Liriomyza trifolii
Method: as §1, §3
Kidney bean planted in a pot having a diameter of 7 cm was put in a breeding case wherein adults of serpentine leaf miner were released and permitted to lay eggs for 2 days. Thereafter, the test plant was taken out and left for 1 day, and then, a water-diluted liquid containing 50 ppm of a polyoxyethylene arylether phosphoric acid ester, prepared by replacing the polyoxyethylene alkyl ether phosphoric acid ester in the above Example 1 by a polyoxyethylene arylether phosphoric acid ester, was sprayed twice on each of the front and rear sides of the Kidney bean leaf by means of a hand spray. After drying in air, the Kidney bean was left to stand for 5 days in an illuminated constant temperature chamber at 25° C., whereupon the number of pupae on each leaf was counted, and the protective value was calculated in the same manner as in Test Example 1. The test was repeated twice. As the polyoxyethylene arylether phosphoric acid ester, and ADEKA COL CS-1361E (manufactured by ADEKA) was used.
For the purpose of comparison, a water-diluted liquid n having no polyoxyethylene arylether phosphoric acid ester added, was prepared, and spray treatment was carried out in the same manner.

serpentine leaf miner [3] = assay: Test Example 3: controlling effects against serpentine leaf miner, liquid composition of Example 4 diluted with water; type: in vivo, Liriomyza trifolii
Method: […] of Compound 1 and 20.0 g of a polyoxyalkylene phosphoric acid ester surfactant are dissolved in 74.7 g of N,N-dimethylacetamide to obtain 100 g of a transparent liquid composition containing 5 wt % of Compound 1.
as §3
Kidney bean planted in a pot having a diameter of 7 cm was put in a breeding case wherein adults of serpentine leaf miner were released and permitted to lay eggs for 2 days. Thereafter, the test plant was taken out and left for 2 days, the liquid composition obtained in accordance with the above Example 4 was diluted with water to prepare a test liquid containing 50 ppm or 100 ppm of the polyoxyalkylene phosphoric acid ester surfactant. Each test liquid was a suspension solution having fine particles uniformly dispersed. The suspension solution was sprayed twice on each of the front and rear sides of the Kidney bean leaf by means of a hand spray. After drying in air, the Kidney bean was left to stand for 5 days in an illuminated constant temperature chamber at 25° C., whereupon the number of pupae on each leaf was counted, and the protective value was calculated in the same manner as in Test Example 1. The test was repeated twice. As the polyoxyalkylene phosphoric acid ester surfactant, ADEKA COL PS-440E (manufactured by ADEKA) and PHOSPHANOL RS-610 (manufactured by Toho Chemical Industry, Co., Ltd.) as polyoxyethylene alkyl ether phosphoric acid esters, and ADEKA COL CS-1361E (manufactured by ADECA) as a polyoxyethylene arylether phosphoric acid ester were used.
as §2

Measured: Protective value (%)

CC(NC(=O)c1cc(Cl)cc(Br)c1NC(=O)c1cc(Br)nn1-c1ncccc1Cl)C1CC1 (stereo not drawn) [Compound 1, 3-Bromo-N-(2-bromo-4-chloro-6-(1-cyclopropylethylcarbamoyl)phenyl)-1-(3-chloropyridin-2-yl)-1H-pyrazole-5-carboxamide]
46%: serpentine leaf miner [3]; Compound 1 25 ppm, no polyoxyalkylene phosphoric acid ester surfactant (comparative section)
100%: [1]; Compound 1 12.5 ppm + PS-440E 100 ppm, foliar spray on Kidney bean, pupae counted after 5 days | [1]; Compound 1 12.5 ppm + PS-440E 250 ppm, foliar spray on Kidney bean, pupae counted after 5 days | [1]; Compound 1 12.5 ppm + RS-610 250 ppm, foliar spray on Kidney bean, pupae counted after 5 days | [1]; Compound 1 12.5 ppm + RS-710 250 ppm, foliar spray on Kidney bean, pupae counted after 5 days | [1]; Compound 1 25 ppm + PS-440E 100 ppm, foliar spray on Kidney bean, pupae counted after 5 days | [1]; Compound 1 25 ppm + PS-440E 250 ppm, foliar spray on Kidney bean, pupae counted after 5 days | [1]; Compound 1 25 ppm + RD-510Y 250 ppm, foliar spray on Kidney bean, pupae counted after 5 days | [1]; Compound 1 25 ppm + RS-610 250 ppm, foliar spray on Kidney bean, pupae counted after 5 days | [1]; Compound 1 25 ppm + RS-710 250 ppm, foliar spray on Kidney bean, pupae counted after 5 days | serpentine leaf miner [2]; Compound 1 12.5 ppm + CS-1361E 50 ppm, foliar spray on Kidney bean, pupae counted after 5 days | serpentine leaf miner [2]; Compound 1 25 ppm + CS-1361E 50 ppm, foliar spray on Kidney bean, pupae counted after 5 days | serpentine leaf miner [3]; Compound 1 25 ppm + CS-1361E 100 ppm (Example 4 composition), foliar spray on Kidney bean, pupae counted after 5 days
89%: serpentine leaf miner [3]; Compound 1 12.5 ppm + RS-610 50 ppm (Example 4 composition), foliar spray on Kidney bean, pupae counted after 5 days
50%: serpentine leaf miner [2]; Compound 1 25 ppm, no polyoxyethylene arylether phosphoric acid ester (comparative section)
77%: serpentine leaf miner [3]; Compound 1 12.5 ppm + PS-440E 50 ppm (Example 4 composition), foliar spray on Kidney bean, pupae counted after 5 days
70%: [1]; Compound 1 12.5 ppm + RD-510Y 250 ppm, foliar spray on Kidney bean, pupae counted after 5 days
0%: [1]; Compound 1 12.5 ppm, no polyoxyethylene alkyl ether phosphoric acid ester (comparative section) | [1]; Compound 1 25 ppm, no polyoxyethylene alkyl ether phosphoric acid ester (comparative section) | serpentine leaf miner [2]; Compound 1 12.5 ppm, no polyoxyethylene arylether phosphoric acid ester (comparative section) | serpentine leaf miner [3]; Compound 1 12.5 ppm, no polyoxyalkylene phosphoric acid ester surfactant (comparative section)
